Assay results published in US20260130928A1, “COMBINATION OF AKR1C3 ACTIVATED ANTICANCER PRODRUG COMPOUND AND ANALGESIC DRUG FOR TREATING CANCER PATIENTS ACCOMPANIED BY PAIN” (ASCENTAWITS PHARMACEUTICALS, LTD., priority 2022, published 2026).

System: H460 cell line
Experiment: Cell proliferation inhibition by combining Naproxen or TH-3021 and AST-3424 in different sequence of administration (CTG)
Format: cell-based, human
Settings: Homo sapiens, AST-3424 alone 2 h as reference, H460
Procedure: The following are the different treatment methods. […] The plate was shaken gently to ensure uniform mixing, and placed in the incubator for 2 hours. […] The plate was shaken gently to ensure uniform mixing, and placed in the incubator for 2 hours. Subsequently, the plate was washed to remove the compound, and placed in the incubator at 37° C. with 5% CO2 for further 72 hours. […] The plate was shaken gently to ensure uniform mixing, and placed in the incubator for 2 hours. Subsequently, the plate was washed to remove the compounds, and placed in the incubator at 37° C. with 5% CO2 for 72 hours. […] The plate was shaken gently to ensure uniform mixing, and placed in the incubator for 2 hours. […] The plate was shaken gently to ensure uniform mixing, and placed in the incubator for 2 hours. Subsequently, the plate was washed to remove the compounds, and placed in the incubator at 37° C. with 5% CO2 for further 72 hours. […] The plate was shaken gently to ensure uniform mixing, and placed in the incubator for 2 hours. […] The plate was shaken gently to ensure uniform mixing, and placed in the incubator for 2 hours. Subsequently, the plate was washed to remove the compounds, and placed in the incubator at 37° C. with 5% CO2 for further 72 hours. b) Administrating single drug: after 24 hours of cell seeding, the compound was administered alone. […] The plate was shaken gently to ensure uniform mixing, and placed in the incubator at 37° C. with 5% CO2 for 2 hours. Subsequently, the compound was washed off, and each well was added with fresh medium. The plate was placed in the incubator at 37° C. with 5% CO2 for further 72 hours.

SMILES: C[C@H](OP(=O)(N1CC1)N1CC1)c1ccc([N+](=O)[O-])c(Oc2cccc(C(=O)N(C)C)c2)c1 [AST-3424]
- IC50 (NCI-H460, 2 h, Group 2: TH-3021 3 μM or Naproxen 400 μM + AST-3424 2 h simultaneously): 1.08 nM
- IC50 (NCI-H460, Group 1: TH-3021 3 μM or Naproxen 400 μM 2 h pretreatment, washed off, then AST-3424 2 h): 0.88 nM
- IC50 (NCI-H460, Group 3: AST-3424 2 h pretreatment, washed off, then TH-3021 3 μM or Naproxen 400 μM 2 h): 1 nM
- IC50 (NCI-H460, Group 4: TH-3021 3 μM or Naproxen 400 μM 2 h pretreatment, not washed off, AST-3424 2 h cotreatment): 1.14 nM
